Assay results reported in article PMC11606603, “The membrane domains of mammalian adenylyl cyclases are lipid receptors” (eLife, 2024).
“And” between values parts separate entries of the source, which are not always exact repeats. Identical values can stand only once.

Legend:
Assay type in all cases: biochemical
mAC9 = molecular target: T1, mAC9 (Homo sapiens, UniProt O60503); experiment: AC assay, Gsα-stimulated mAC9 in membranes from transfected HEK293 cells; conditions: for mAC9 activity (%);(100% = Gsα stimulation) stimulated by 300nM Gsα / mAC9 activity [%] (100% = 300nM Gsα stimulation); 20µM fatty acid concentration: single experiments
T1 construct: Human mAC genes were from GenScript and fitted with a C-terminal FLAG-tag; FLAG (C); made in house; host or cells: HEK293, permanently transfected; membrane preparation
Description: (§1) hAC sequences were from NCBI were: ADCY1: NM_021116.3; ADCY2: NM_020546.2; ADCY3: NM_004036.4; ADCY4: NM_001198568.2; ADCY5: NM_183357.2; ADCY6: NM_015270.4; ADCY7: NM_001114.4; ADCY8: NM_001115.2; ADCY9: NM_001116.3. Human mAC genes were from GenScript and fitted with a C-terminal FLAG-tag. […] The gene was synthesized by GenScript. HEK293 cells were maintained in Dulbeccos Modified Eagle Medium (DMEM) with 10% fetal bovine serum at 37°C and 5% CO2. Transfection with AC plasmids was with PolyJet (SignaGen, Frederick, MD, USA). Permanent cell lines were generated by selection for 7 days with 600 µg/ml G418 and maintained with 300 µg/ml For membrane preparation, cells were tyrpsinized, collected by centrifugation (3000 × g, 5 min) and lysed and homogenized in 20 mM HEPES, pH 7.5, 1 mM Ethylenediaminetetraacetic acid (EDTA), 2 mM MgCl2, 1 mM Dithiothreitol (DTT), one tablet of cOmplete, EDTA-free (per 50 ml) and 250 mM sucrose by 20 strokes in a potter homogenizer on ice. Debris was removed (5 min at 1000 × g, 0°C), membranes were collected at 100,000 × g, 60 min at 0°C, suspended and stored at −80°C in 20 mM MOPS, pH 7.5, 0.5 mM EDTA, 2 mM MgCl2. […] Three cerebral cortices were dissected and homogenized in 4.5 ml cold 48 mM Tris–HCl, pH 7.4, 12 mM MgC1_2, and 0.1 mM Ethylene glycol-bis(β-aminoethyl ether)-N,N,N′,N′-tetraacetic acid (EGTA) with a Polytron hand disperser (Kinematica AG, Switzerland). […] The pellet was washed once with 5 ml 1 mM KHCO3. The final suspension in 2 ml 1 mM KHCO3 was stored in aliquots at −80°C.
(§2) In a volume of 10 μl, AC activities were measured using 1 mM ATP, 2 mM MgCl2, 3 mM creatine phosphate, 60 μg/ml creatine kinase, and 50 mM MOPS pH 7.5. The cAMP assay kit from Cisbio (Codolet, France) was used for detection according to the supplier’s instructions. For each assay, a cAMP standard curve was established. EC50 and IC50 values were calculated by GraphPad Prism version 8.4.3 for Windows, GraphPad Software, San Diego, CA, USA, https://www.graphpad.com .

mAC4 = molecular target: T2, mAC4 (Homo sapiens, UniProt Q8NFM4); experiment: AC assay, Gsα-stimulated mAC4 in membranes from transfected HEK293 cells; conditions: for mAC4 activity [%] (100% = 300nM Gsα stimulation); 20µM fatty acid concentration: single experiments
T2 construct: Human mAC genes were from GenScript and fitted with a C-terminal FLAG-tag; FLAG (C); made in house; host or cells: HEK293, permanently transfected; membrane preparation
T2 sequence (Q8NFM4 1-1077): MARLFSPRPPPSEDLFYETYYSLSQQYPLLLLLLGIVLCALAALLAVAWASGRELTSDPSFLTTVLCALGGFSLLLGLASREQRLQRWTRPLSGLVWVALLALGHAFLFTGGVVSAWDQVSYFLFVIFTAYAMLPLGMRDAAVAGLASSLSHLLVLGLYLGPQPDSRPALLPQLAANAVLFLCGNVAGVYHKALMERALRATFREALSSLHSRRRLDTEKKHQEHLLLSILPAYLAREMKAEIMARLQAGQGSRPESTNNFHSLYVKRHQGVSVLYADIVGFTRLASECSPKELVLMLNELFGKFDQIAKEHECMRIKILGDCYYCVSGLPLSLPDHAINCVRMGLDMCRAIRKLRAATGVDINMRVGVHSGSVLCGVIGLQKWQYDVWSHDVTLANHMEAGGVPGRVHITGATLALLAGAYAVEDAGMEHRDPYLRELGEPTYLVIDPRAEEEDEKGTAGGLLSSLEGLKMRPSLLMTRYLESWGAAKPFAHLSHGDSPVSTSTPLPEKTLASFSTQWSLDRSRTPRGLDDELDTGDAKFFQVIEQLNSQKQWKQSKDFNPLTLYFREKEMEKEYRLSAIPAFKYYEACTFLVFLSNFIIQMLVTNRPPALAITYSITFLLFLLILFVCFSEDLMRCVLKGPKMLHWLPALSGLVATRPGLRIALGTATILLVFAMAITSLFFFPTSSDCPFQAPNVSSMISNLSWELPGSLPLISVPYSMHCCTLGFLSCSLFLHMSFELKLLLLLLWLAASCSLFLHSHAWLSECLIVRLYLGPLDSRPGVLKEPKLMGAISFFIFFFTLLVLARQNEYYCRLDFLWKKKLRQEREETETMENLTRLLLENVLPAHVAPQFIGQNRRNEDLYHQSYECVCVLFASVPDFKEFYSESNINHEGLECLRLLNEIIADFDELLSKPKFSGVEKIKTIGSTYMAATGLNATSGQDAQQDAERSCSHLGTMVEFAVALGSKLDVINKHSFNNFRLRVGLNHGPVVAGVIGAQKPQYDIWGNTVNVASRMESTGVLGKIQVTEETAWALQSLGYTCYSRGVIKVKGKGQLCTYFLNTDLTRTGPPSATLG
Description: as §1, §2

mAC7 = molecular target: T3, mAC7 (Homo sapiens, UniProt P51828); experiment: AC assay, Gsα-stimulated mAC7 in membranes from transfected HEK293 cells; conditions: for mAC7 activity [%] (100% = 300nM Gsα stimulation); 20µM fatty acid concentration: Figure 5-figure supplement 2 left
T3 construct: Human mAC genes were from GenScript and fitted with a C-terminal FLAG-tag; FLAG (C); made in house; host or cells: HEK293, permanently transfected; membrane preparation
T3 sequence (P51828 whole entry): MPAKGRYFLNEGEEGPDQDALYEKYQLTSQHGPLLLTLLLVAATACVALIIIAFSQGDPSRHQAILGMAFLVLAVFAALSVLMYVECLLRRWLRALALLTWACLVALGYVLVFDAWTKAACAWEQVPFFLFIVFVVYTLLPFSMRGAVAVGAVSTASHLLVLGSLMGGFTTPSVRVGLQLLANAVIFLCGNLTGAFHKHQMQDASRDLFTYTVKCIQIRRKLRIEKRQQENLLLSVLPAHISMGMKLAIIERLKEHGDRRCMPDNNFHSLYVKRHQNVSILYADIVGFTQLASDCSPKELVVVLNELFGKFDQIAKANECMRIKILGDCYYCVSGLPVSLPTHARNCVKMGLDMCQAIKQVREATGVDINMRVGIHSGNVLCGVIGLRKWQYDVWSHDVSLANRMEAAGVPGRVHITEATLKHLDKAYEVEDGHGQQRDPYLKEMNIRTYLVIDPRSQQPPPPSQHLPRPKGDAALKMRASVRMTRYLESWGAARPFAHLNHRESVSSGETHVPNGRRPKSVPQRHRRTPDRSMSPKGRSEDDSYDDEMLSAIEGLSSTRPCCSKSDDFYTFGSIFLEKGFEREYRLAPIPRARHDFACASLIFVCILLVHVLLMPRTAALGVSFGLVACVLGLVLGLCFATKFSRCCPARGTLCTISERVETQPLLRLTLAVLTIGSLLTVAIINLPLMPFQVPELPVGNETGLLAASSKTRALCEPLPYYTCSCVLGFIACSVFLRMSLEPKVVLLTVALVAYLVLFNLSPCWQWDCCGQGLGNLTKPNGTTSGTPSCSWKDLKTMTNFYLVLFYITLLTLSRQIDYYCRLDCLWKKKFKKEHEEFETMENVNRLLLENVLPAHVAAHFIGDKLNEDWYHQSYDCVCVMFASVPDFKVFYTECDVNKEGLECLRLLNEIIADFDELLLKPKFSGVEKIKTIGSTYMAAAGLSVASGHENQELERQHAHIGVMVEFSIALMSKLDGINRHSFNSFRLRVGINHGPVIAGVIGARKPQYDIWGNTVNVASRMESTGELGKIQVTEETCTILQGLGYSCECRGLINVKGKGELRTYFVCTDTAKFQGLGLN
T3 sequence (P63092 2-394 Q227L partner): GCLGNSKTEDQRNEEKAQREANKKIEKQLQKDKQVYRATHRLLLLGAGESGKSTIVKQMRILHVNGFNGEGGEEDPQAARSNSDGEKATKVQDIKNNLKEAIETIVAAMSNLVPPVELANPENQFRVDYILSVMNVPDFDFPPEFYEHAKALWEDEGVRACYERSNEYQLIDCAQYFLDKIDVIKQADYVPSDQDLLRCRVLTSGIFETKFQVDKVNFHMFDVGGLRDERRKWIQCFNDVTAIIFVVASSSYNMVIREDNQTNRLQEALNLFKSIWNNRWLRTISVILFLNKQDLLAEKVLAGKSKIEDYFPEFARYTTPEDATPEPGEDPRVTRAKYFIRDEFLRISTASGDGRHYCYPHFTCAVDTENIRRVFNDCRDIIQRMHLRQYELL
Description: as §1, §2

mAC6 = molecular target: T4, mAC6 (Homo sapiens, UniProt O43306); experiment: AC assay, Gsα-stimulated mAC6 in membranes from transfected HEK293 cells; conditions: 20µM fatty acid concentration
T4 construct: Human mAC genes were from GenScript and fitted with a C-terminal FLAG-tag; FLAG (C); made in house; host or cells: HEK293, permanently transfected; membrane preparation
T4 sequence (O43306 whole entry): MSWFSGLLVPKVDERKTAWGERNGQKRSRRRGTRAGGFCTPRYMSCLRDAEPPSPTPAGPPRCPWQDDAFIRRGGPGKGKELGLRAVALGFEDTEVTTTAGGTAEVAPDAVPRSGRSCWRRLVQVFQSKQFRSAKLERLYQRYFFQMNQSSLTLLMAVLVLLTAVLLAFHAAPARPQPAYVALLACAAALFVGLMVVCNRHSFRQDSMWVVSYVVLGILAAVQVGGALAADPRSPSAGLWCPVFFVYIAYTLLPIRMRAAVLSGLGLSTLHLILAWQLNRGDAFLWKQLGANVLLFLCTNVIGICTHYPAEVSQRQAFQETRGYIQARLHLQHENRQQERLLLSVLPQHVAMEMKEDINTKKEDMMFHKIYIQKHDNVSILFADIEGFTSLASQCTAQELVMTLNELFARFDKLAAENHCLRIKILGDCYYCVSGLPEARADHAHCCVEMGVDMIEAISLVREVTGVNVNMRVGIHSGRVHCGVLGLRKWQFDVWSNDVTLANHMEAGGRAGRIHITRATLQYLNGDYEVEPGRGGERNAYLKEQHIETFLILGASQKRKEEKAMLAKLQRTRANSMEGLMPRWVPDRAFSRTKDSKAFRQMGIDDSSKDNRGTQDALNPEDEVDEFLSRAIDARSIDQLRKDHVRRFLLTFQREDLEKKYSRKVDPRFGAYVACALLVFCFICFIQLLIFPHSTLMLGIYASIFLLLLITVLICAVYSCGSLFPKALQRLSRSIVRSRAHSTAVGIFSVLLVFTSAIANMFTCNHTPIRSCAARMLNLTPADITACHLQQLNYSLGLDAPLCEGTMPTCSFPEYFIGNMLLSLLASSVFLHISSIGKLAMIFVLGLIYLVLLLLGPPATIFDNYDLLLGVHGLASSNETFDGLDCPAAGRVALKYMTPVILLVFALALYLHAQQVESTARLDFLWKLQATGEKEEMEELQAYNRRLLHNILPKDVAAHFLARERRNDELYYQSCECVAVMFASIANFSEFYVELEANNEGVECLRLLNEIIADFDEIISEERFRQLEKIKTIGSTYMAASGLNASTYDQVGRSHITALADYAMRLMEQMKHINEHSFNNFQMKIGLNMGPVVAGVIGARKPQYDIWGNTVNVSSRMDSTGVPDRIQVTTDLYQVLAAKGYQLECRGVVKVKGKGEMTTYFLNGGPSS
Description: as §1, §2

mAC2 = molecular target: T5, mAC2 (Homo sapiens, UniProt Q08462); experiment: AC assay, Gsα-stimulated mAC2 in membranes from transfected HEK293 cells; conditions: Figure 5-figure supplement 1 left, 20 µM
T5 construct: Human mAC genes were from GenScript and fitted with a C-terminal FLAG-tag; FLAG (C); made in house; host or cells: HEK293, permanently transfected; membrane preparation
Description: as §1, §2

mAC1 = molecular target: T6, mAC1 (Homo sapiens, UniProt Q08828); experiment: AC assay, Gsα-stimulated mAC1 in membranes from transfected HEK293 cells; conditions: for mAC1 activity [%] (100% = 300nM Gsα stimulation); 20µM fatty acid concentration: single experiments
T6 construct: Human mAC genes were from GenScript and fitted with a C-terminal FLAG-tag; FLAG (C); made in house; host or cells: HEK293, permanently transfected; membrane preparation
Description: as §1, §2

mAC3 = molecular target: T7, mAC3 (Homo sapiens, UniProt O60266); experiment: AC assay, Gsα-stimulated mAC3 in membranes from transfected HEK293 cells; conditions: for Effect of lipid on 300 nM Gsα-stimulated mAC3: 20 µM, in words; for mAC3 activity [%] (100% = 300nM Gsα stimulation): fatty acid 20 µM, individual experiments
T7 construct: Human mAC genes were from GenScript and fitted with a C-terminal FLAG-tag; FLAG (C); made in house; host or cells: HEK293, permanently transfected; membrane preparation
T7 sequence (O60266 whole entry): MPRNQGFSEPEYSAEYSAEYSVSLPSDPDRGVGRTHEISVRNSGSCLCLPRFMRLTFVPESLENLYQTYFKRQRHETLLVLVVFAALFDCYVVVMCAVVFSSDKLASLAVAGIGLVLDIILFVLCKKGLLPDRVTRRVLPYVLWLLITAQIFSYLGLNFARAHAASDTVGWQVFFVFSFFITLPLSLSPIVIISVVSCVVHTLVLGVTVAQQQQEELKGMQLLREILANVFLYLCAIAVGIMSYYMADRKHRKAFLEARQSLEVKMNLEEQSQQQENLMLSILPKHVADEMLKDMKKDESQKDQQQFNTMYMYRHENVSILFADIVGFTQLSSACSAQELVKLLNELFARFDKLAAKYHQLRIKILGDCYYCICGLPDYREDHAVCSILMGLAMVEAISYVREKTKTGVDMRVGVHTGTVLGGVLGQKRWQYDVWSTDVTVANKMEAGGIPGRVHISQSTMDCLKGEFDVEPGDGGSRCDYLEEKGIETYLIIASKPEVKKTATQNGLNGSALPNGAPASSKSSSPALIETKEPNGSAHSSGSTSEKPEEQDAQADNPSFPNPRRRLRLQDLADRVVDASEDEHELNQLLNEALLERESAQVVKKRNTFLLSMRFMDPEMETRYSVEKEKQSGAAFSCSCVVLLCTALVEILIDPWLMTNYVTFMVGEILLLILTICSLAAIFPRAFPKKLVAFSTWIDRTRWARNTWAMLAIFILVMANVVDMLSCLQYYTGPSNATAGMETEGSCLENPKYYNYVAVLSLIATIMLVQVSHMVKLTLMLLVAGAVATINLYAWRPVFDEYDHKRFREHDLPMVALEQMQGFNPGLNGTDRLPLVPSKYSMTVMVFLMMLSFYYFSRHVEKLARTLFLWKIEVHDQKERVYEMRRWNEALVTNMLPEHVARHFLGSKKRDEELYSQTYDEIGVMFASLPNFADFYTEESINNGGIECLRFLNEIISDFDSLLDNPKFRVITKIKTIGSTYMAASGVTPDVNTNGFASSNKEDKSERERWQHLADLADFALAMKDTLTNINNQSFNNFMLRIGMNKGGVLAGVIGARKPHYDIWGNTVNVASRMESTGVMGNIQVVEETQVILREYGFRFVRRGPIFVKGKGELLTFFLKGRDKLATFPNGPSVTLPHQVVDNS
T7 sequence (P63092 whole entry Q227L partner): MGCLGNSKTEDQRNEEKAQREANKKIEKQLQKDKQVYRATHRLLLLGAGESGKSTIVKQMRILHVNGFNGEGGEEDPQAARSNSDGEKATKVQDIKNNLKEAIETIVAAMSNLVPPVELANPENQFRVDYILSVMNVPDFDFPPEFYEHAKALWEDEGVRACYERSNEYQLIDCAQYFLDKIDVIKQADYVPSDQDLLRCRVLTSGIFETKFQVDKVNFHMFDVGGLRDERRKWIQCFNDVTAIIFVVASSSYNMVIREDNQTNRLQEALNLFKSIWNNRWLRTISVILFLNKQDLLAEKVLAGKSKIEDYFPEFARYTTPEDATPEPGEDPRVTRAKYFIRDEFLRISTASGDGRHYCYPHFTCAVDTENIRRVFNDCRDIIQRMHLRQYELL
Description: as §1, §2

mAC5 = molecular target: T8, mAC5 (Homo sapiens, UniProt O95622); experiment: AC assay, Gsα-stimulated mAC5 in membranes from transfected HEK293 cells; conditions: 20µM fatty acid concentration
T8 construct: Human mAC genes were from GenScript and fitted with a C-terminal FLAG-tag; FLAG (C); made in house; host or cells: HEK293, permanently transfected; membrane preparation
Description: as §1, §2

Structure (SMILES)	mAC9 activity (%);(100% = Gsα stimulation) stimulated by 300nM Gsα (mAC9; 3 µM fatty acid)	mAC9 activity (%);(100% = Gsα stimulation) stimulated by 300nM Gsα (mAC9; 6 µM fatty acid)	EC50 (mAC9; enhancement of 300 nM Gsα-stimulated activity, read-out: EC50 for mAC9) [µM]	mAC4 activity [%] (100% = 300nM Gsα stimulation); 20µM fatty acid concentration (mAC4)	EC50 (mAC7; enhancement of 300 nM Gsα-stimulated activity) [µM]	activity at 0.3 µM (mAC7; read-out: mAC7 activity (%);(100% = Gsα stimulation) stimulated by 300nM Gsα, Elaidic acid 0.3 µM) [%]	mAC6 activity [%] (100% = 300nM Gsα stimulation) (mAC6)	mAC2 activity [%] (100% = 300nM Gsα stimulation); 20µM fatty acid concentration (mAC2)	mAC1 activity [%] (100% = 300nM Gsα stimulation); 20µM fatty acid concentration (mAC1)	Effect of lipid on 300 nM Gsα-stimulated mAC3 (mAC3)	mAC3 activity [%] (100% = 300nM Gsα stimulation) (mAC3)	Effect of lipid on 300 nM Gsα-stimulated mAC4 (mAC4; 20 µM, in words)	mAC7 activity [%] (100% = 300nM Gsα stimulation); 20µM fatty acid concentration (mAC7)	Effect of lipid on 300 nM Gsα-stimulated mAC1 (mAC1; 20 µM, in words)	mAC5 activity [%] (100% = 300nM Gsα stimulation) (mAC5)	mAC9 activity [%] (100% = 300nM Gsα stimulation); 20µM fatty acid concentration (mAC9)
CCCCCCCC/C=C/CCCCCCCC(=O)O [Elaidic acid, Elaidic ((9E)-octadecenoic) acid]	154% and 261% and 166% and 178%	346% and 329% and 316% and 303% and 243%	5	130% and 156% and 151%	9.7	100	101% and 97%	131%	72% and 100%	efficient enhancers	437% and 276% and 279% and 778% and 673%	–	–	–	–	–
CC/C=C\C/C=C\C/C=C\C/C=C\C/C=C\CCCC(=O)O [EPA, Eicosapentaenoic ((5Z,8Z,11Z,14Z,17Z)-eicosapentaenoic) acid]	–	–	–	–	–	–	112% and 108%	102% and 159%	99% and 107% and 86% and 87%	less efficacious	169% and 200% and 266% and 160%	no effect	113% and 166%	no effect	101% and 83%	–
CCCCCCCC/C=C\CCCCCCCC(=O)OC(CO)CO [2-Oleoylglycerol]	–	–	–	–	–	–	–	–	–	–	72%	–	93%	–	96%	131%
CCCCCCCC/C=C\CCCCCCCC(=O)OC [Me-Oleate, Methyl oleate]	–	–	–	77% and 99%	–	–	78% and 90%	121% and 73%	99% and 63%	–	141% and 90%	–	115% and 85%	–	60% and 91%	86% and 143%
